{
  "source": "patent US20230183237A1",
  "about": "“COMPETITIVE AND NONCOMPETITIVE INHIBITORS OF THE MUSCARINIC ACETYLCHOLINE RECEPTOR M5” (Vanderbilt University, priority 2020, published 2023)",
  "data": [
    {"biological_target": "T1, hM5 (Homo sapiens, UniProt P08912)", "T1 construct": "expressed in transfected cells", "T1 sequence (P08912 1-532)": "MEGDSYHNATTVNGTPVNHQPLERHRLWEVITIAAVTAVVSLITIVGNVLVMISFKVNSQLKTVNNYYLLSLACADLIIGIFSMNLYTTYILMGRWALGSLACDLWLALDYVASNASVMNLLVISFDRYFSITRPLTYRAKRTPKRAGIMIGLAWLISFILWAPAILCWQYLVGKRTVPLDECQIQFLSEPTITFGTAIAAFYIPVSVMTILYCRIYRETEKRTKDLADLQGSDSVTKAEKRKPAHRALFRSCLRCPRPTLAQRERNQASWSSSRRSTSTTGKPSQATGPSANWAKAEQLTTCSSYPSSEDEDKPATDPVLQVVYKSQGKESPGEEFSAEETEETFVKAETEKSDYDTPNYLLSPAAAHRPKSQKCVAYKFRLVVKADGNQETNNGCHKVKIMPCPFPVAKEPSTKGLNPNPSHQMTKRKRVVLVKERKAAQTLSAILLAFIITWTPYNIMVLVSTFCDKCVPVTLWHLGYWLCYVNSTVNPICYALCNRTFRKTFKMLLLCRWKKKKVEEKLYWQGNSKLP", "test": "Calcium mobilization concentration-response (IC50 vs EC80 acetylcholine), CHO hM5", "type": "cell-based", "details": "CELL LINE hM5; calcium mobilization, EC80 acetylcholine addition; read-out: IC50", "how_it_was_run": "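IC50 values derive from percent maximal acetylcholine response after an EC80 ACh addition, measured as kinetic calcium fluorescence (static ratio, max−min). Test compounds were added 140 s before agonist. Cells: stable hM5-CHO in HEPES-buffered HBSS with 2.5 mM probenecid, pH 7.4; ≥3 independent triplicate determinations.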", "units": {"IC50": "nM"}, "values": [
      {"smiles": "Cc1cc2nccn2nc1C1CCN(S(=O)(=O)c2cnn3c2CCCC3)CC1", "note": "[Compound 247, 7-methyl-6-(1-((4,5,6,7-tetrahydropyrazolo[1,5-a]pyridin-3-yl)sulfonyl)piperidin-4-yl)imidazo[1,2-b]pyridazine]", "IC50": 19},
      {"smiles": "Cc1cc2nccn2nc1C1CCN(S(=O)(=O)c2c(C)nn(C)c2Cl)CC1", "note": "[Compound 248, 6-(1-((5-chloro-1,3-dimethyl-1-pyrazol-4-yl)sulfonyl)piperidin-4-yl)-7-methylimidazo[1,2-b]pyridazine]", "IC50": 69},
      {"smiles": "Cc1nc(C)c(S(=O)(=O)N2CCC(c3nn4ccnc4cc3C)CC2)s1", "note": "[Compound 249, 2,4-dimethyl-5-((4-(7-methylimidazo[1,2-b]pyridazin-6-yl)piperidin-1-yl)sulfonyl)thiazole]", "IC50": 2600},
      {"smiles": "Cc1cc2nccn2nc1C1CCN(S(=O)(=O)c2ccc3c(c2)N(C)CCO3)CC1", "note": "[Compound 250, 4-methyl-6-((4-(7-methylimidazo[1,2-b]pyridazin-6-yl)piperidin-1-yl)sulfonyl)-3,4-dihydro-2H-benzo[b][1,4]oxazine]", "IC50": 1500},
      {"smiles": "Cc1cc2nccn2nc1C1CCN(S(=O)(=O)c2cnn(C)c2C)CC1", "note": "[Compound 251, 6-(1-((1,5-dimethyl-1H-pyrazol-4-yl)sulfonyl)piperidin-4-yl)-7-methylimidazo[1,2-b]pyridazine]", "IC50": 34},
      {"smiles": "Cc1cc2nccn2nc1C1CCN(S(=O)(=O)c2cnc(C)n2C)CC1", "note": "[Compound 252, 6-(1-((1,2-dimethyl-1H-imidazol-5-yl)sulfonyl)piperidin-4-yl)-7-methylimidazo[1,2-b]pyridazine]", "IC50": 123},
      {"smiles": "O=S(=O)(c1cnn2c1NCCC2)N1CCC(c2cn3ncnc3cc2F)CC1", "note": "[Compound 253, 7-fluoro-6-(1-((4,5,6,7-tetrahydropyrazolo[1,5-a]pyrimidin-3-yl)sulfonyl)piperidin-4-yl)-[1,2,4]triazolo[1,5-a]pyridine]", "IC50": 57},
      {"smiles": "[2H]C([2H])([2H])n1cc(S(=O)(=O)N2CCC(c3cn4ncnc4cc3C)CC2)c(Cl)n1", "note": "[Compound 256, 6-(1-((3-chloro-1-(methyl-d3)-1H-pyrazol-4-yl)sulfonyl)piperidin-4-yl)-7-methyl-[1,2,4]triazolo[1,5-a]pyridine]", "IC50": 53},
      {"smiles": "[2H]C([2H])([2H])n1nc(Cl)c(S(=O)(=O)N2CCC(c3cn4ncnc4cc3F)CC2)c1C", "note": "[Compound 257, 6-(1-((3-chloro-5-methyl-1-(methyl-d3)-1H-pyrazol-4-yl)sulfonyl)piperidin-4-yl)-7-fluoro-[1,2,4]triazolo[1,5-a]pyridine]", "IC50": 89},
      {"smiles": "[2H]C([2H])([2H])n1cc(S(=O)(=O)N2CCC(c3cn4ncnc4cc3F)CC2)c(Cl)n1", "note": "[Compound 259, 6-(1-((3-chloro-1-(methyl-d3)-1H-pyrazol-4-yl)sulfonyl)piperidin-4-yl)-7-fluoro-[1,2,4]triazolo[1,5-a]pyridine]", "IC50": 3000},
      {"smiles": "[2H]C([2H])([2H])n1nc(Cl)c(S(=O)(=O)N2CCC(c3cn4ncnc4cc3C)CC2)c1C", "note": "[Compound 260, 6-(1(3-chloro-5-methyl-1-(methyl-d3-1H-pyrazol-4-yl)sulfonyl)piperidin-4-yl)-7-methyl-[1,2,4]triazolo[1,5-a]pyridine]", "IC50": 29},
      {"smiles": "Cc1cc2ncnn2cc1C1CCN(S(=O)(=O)c2cnn3c2NCCC3)CC1", "note": "[Compound 261, 7-methyl-6-(1-((4,5,6,7-tetrahydropyrazolo[1,5-a]pyrimidin-3-yl)sulfonyl)piperidin-4-yl)-[1,2,4]triazolo[1,5-a]pyridine]", "IC50": 62},
      {"smiles": "COc1cc2ncnn2cc1C1CCN(S(=O)(=O)c2cnn3c2CCC3)CC1", "note": "[Compound 263, 6-(1-((5,6-dihydro-4H-pyrrolo[1,2-b]pyrazol-3-yl)sulfonyl)piperidin-4-yl)-7-methoxy-[1,2,4]triazolo[1,5-a]pyridine]", "IC50": 1400},
      {"smiles": "Cc1c(C2CCN(S(=O)(=O)c3cnn(C)c3C)CC2)cn2ncnc2c1F", "note": "[Compound 264, 6-(1-((1,5-dimethyl-1H-pyrazol-4-yl)sulfonyl)piperidin-4-yl)-8-fluoro-7-methyl-[1,2,4]triazolo[1,5-a]pyridine]", "IC50": 21},
      {"smiles": "Cc1nn(C)c(C(F)(F)F)c1S(=O)(=O)N1CCC(c2cn3ncnc3c(F)c2C)CC1", "note": "[Compound 266, 6-(1-((1,3-dimethyl-5-(trifluoromethyl)-1H-pyrazol-4-yl)sulfonyl)piperidin-4-yl)-8-fluoro-7-methyl-[1,2,4]triazolo[1,5-a]pyridine]", "IC50": 284},
      {"smiles": "Cc1c(C2CCN(S(=O)(=O)c3ccc4c(c3)CCO4)CC2)cn2ncnc2c1F", "note": "[Compound 267, 6-(1-((2,3-dihydrobenzofuran-5-yl)sulfonyl)piperidin-4-yl)-8-fluoro-7-methyl-[1,2,4]triazolo[1,5-a]pyridine]", "IC50": 208},
      {"smiles": "Cc1c(C2CCN(S(=O)(=O)c3cnn4c3CCC4)CC2)cn2ncnc2c1F", "note": "[Compound 268, 6-(1-((5,6-dihydro-4H-pyrrolo[1,2-b]pyrazol-3-yl)sulfonyl)piperidin-4-yl)-8-fluoro-7-methyl-[1,2,4]triazolo[1,5-a]pyridine]", "IC50": 14},
      {"smiles": "Cc1c(C2CCN(S(=O)(=O)c3cnn(C(F)F)c3C)CC2)cn2ncnc2c1F", "note": "[Compound 269, 6-(1-((1-(difluoromethyl)-5-methyl-1H-pyrazol-4-yl)sulfonyl)piperidin-4-yl)-8-fluoro-7-methyl-[1,2,4]triazolo[1,5-a]pyridine]", "IC50": 326},
      {"smiles": "O=S(=O)(c1cnn2c1CCCC2)N1CCC(c2cn3ncnc3cc2C(F)(F)F)CC1", "note": "[Compound 271, 6-(1-((4,5,6,7-tetrahydropyrazolo[1,5-a]pyridin-3-yl)sulfonyl)piperidin-4-yl)-7-(trifluoromethyl)-[1,2,4]triazolo[1,5-a]pyridine]", "IC50": 51},
      {"smiles": "O=S(=O)(c1cnn2c1CCC2)N1CCC(c2cn3ncnc3cc2C(F)(F)F)CC1", "note": "[Compound 272, 6-(1-((5,6-dihydro-4H-pyrrolo[1,2-b]pyrazol-3-yl)sulfonyl)piperidin-4-yl)-7-(trifluoromethyl)-[1,2,4]triazolo[1,5-a]pyridine]", "IC50": 74},
      {"smiles": "Cc1c(S(=O)(=O)N2CCC(c3cn4ncnc4cc3C(F)(F)F)CC2)cnn1C", "note": "[Compound 273, 6-(1-((1,5-dimethyl-1H-pyrazol-4-yl)sulfonyl)piperidin-4-yl)-7-(trifluoromethyl)-[1,2,4]triazolo[1,5-a]pyridine]", "IC50": 150},
      {"smiles": "Cc1nn(C)c(Cl)c1S(=O)(=O)N1CCC(c2cn3ncnc3cc2C(F)(F)F)CC1", "note": "[Compound 275, 6-(1-((5-chloro-1,3-dimethyl-1H-pyrazol-4-yl)sulfonyl)piperidin-4-yl)-7-(trifluoromethyl)-[1,2,4]triazolo[1,5-a]pyridine]", "IC50": 61},
      {"smiles": "Cc1nn(C(F)F)cc1S(=O)(=O)N1CCC(c2cn3ncnc3cc2C(F)(F)F)CC1", "note": "[Compound 276, 6-(1-((1-(difluoromethyl)-3-methyl-1H-pyrazol-4-yl)sulfonyl)piperidin-4-yl)-7-(trifluoromethyl)-[1,2,4]triazolo[1,5-a]pyridine]", "IC50": "> 10000"},
      {"smiles": "Cc1ncc(S(=O)(=O)N2CCC(c3cn4ncnc4cc3C(F)(F)F)CC2)n1C", "note": "[Compound 277, 6-(1-((1,2-dimethyl-1H-imidazol-5-yl)sulfonyl)piperidin-4-yl)-7-(trifluoromethyl)-[1,2,4]triazolo[1,5-a]pyridine]", "IC50": 234},
      {"smiles": "Cc1nc(C)c(S(=O)(=O)N2CCC(c3cn4ncnc4cc3C(F)(F)F)CC2)s1", "note": "[Compound 279, 2,4-dimethyl-5-((4-(7-(trifluoromethyl)-[1,2,4]triazolo[1,5-a]pyridin-6-yl)piperidin-1-yl)sulfonyl)thiazole]", "IC50": "> 10000"},
      {"smiles": "Cc1cc(S(=O)(=O)N2CCC(c3cn4ncnc4cc3C(F)(F)F)CC2)c(C)s1", "note": "[Compound 280, 6-(1-((2,5-dimethylthiophen-3-yl)sulfonyl)piperidin-4-yl)-7-(trifluoromethyl)-[1,2,4]triazolo[1,5-a]pyridine]", "IC50": 1900},
      {"smiles": "Cc1nn(C)c(C(F)(F)F)c1S(=O)(=O)N1CCC(c2cn3ncnc3cc2C(F)(F)F)CC1", "note": "[Compound 281, 6-(1-((1,3-dimethyl-5-(trifluoromethyl)-1H-pyrazol-4-yl)sulfonyl)piperidin-4-yl)-7-(trifluoromethyl)-[1,2,4]triazolo[1,5-a]pyridine]", "IC50": 1400},
      {"smiles": "O=S(=O)(c1cnn2c1CCCC2)N1CCC(c2cn3ncnc3cc2Cl)CC1", "note": "[Compound 283, 7-chloro-6-(1-((4,5,6,7-tetrahydropyrazolo[1,5-a]pyridin-3-yl)sulfonyl)piperidin-4-yl)-[1,2,4]triazolo[1,5-a]pyridine]", "IC50": 7.3},
      {"smiles": "O=S(=O)(c1cnn2c1CCC2)N1CCC(c2ccc3ncnn3c2)CC1", "note": "[Compound 285, 6-(1-((5,6-dihydro-4H-pyrrolo[1,2-b]pyrazol-3-yl)sulfonyl)piperidin-4-yl)-[1,2,4]triazolo[1,5-a]pyridine]", "IC50": 51},
      {"smiles": "Cc1ncc(S(=O)(=O)N2CCC(c3ccc4ncnn4c3)CC2)n1C", "note": "[Compound 286, 6-(1-((1,2-dimethyl-1H-imidazol-5-yl)sulfonyl)piperidin-4-yl)-[1,2,4]triazolo[1,5-a]pyridine]", "IC50": 2000},
      {"smiles": "O=S(=O)(c1cnn2c1CCCC2)N1CCC(c2ccc3ncnn3c2)CC1", "note": "[Compound 287, 6-(1-((4,5,6,7-tetrahydropyrazolo[1,5-a]pyridin-3-yl)sulfonyl)piperidin-4-yl)-[1,2,4]triazolo[1,5-a]pyridine]", "IC50": 237}
    ]}
  ]
}
